One experiment deals with JAK3 enzyme (Homo sapiens (Human), UniProt P52333). Put plainly: JAK Caliper Enzyme Assay at 4 μM or 1 mM ATP. Type of experiment: biochemical.
In experiment [1] the test system is IL-15 induced P-STAT5 in human PBMC. The experiment can be described thus: PBMC IL-15 induced P-STAT5. The class given is cell-based. The following applies: human PBMC, IL-15 stimulated, read-out: PBMC IL15-pSTAT5 IC50. The method, then: PBMC IL-15 Induced P-STAT5
Frozen human PBMC (200-250 million cells/vial) was thawed at 37° C. The cells were transferred to 10 mL warm medium in a 50-mL conical tube, and centrifuged at 1,200 RPM at room temperature for 5 min. The supernatant was aspirated. […] After adding 47 ml D-PBS (37° C.) to PBMC/FBS suspension, centrifuging at 1,200 RPM at room temperature for 5 min, and aspirating the supernatant, the cells were resuspended in 20 mL warm RPMI medium. Ninety μL of cell suspension were pipetted per well in a 96-well, deep-well, V-bottom plate, and the plate was incubated at 37° C. for 30 min. […] After adding 0.8 mL staining buffer per well, the plates were centrifuged at 1,200 RPM (Beckman GS-6R or Sorvall Legend) at room temperature for 5 min, and again the supernatant was aspirated using a 8-channel or 12-channel manifold. The plate was vortexed, and 0.35 mL 90% methanol/10% H2O (−20° C.) was added per well, and the plate incubated on ice for 20 min. After again adding 0.8 mL staining buffer per well, the plates were centrifuged at 1,200 RPM (Beckman GS-6R or Sorvall Legend) at room temperature for 5 min, and again the supernatant was aspirated using a 8-channel or 12-channel manifold, and then 0.8 mL Staining buffer was added per well. After once again adding 0.8 mL staining buffer per well, the plates were centrifuged at 1,200 RPM (Beckman GS-6R or Sorvall Legend) at room temperature for 5 min, and again the supernatant was aspirated using a 8-channel or 12-channel manifold. […] Samples of 250 μL/well were transferred to a 96-well U-bottom plate, and the FACS analysis was performed gating on total lymphocytes. Samples were analyzed using a BD Calibur™ or BD FACSCanto™ flow cytometer equipped with the BD High Throughput Sampler.

The mark [2] stands for this setting: read-out: JAK3 (4 μM ATP) IC50, 4 μM ATP.
The mark [3] stands for this setting: read-out: JAK3 (1 mM ATP) IC50, 1 mM ATP.

Like-named read-outs stand apart in the source and are kept apart here. Some results are limits rather than exact numbers.

JAK3 enzyme, sequence (P52333 whole entry, species assumed): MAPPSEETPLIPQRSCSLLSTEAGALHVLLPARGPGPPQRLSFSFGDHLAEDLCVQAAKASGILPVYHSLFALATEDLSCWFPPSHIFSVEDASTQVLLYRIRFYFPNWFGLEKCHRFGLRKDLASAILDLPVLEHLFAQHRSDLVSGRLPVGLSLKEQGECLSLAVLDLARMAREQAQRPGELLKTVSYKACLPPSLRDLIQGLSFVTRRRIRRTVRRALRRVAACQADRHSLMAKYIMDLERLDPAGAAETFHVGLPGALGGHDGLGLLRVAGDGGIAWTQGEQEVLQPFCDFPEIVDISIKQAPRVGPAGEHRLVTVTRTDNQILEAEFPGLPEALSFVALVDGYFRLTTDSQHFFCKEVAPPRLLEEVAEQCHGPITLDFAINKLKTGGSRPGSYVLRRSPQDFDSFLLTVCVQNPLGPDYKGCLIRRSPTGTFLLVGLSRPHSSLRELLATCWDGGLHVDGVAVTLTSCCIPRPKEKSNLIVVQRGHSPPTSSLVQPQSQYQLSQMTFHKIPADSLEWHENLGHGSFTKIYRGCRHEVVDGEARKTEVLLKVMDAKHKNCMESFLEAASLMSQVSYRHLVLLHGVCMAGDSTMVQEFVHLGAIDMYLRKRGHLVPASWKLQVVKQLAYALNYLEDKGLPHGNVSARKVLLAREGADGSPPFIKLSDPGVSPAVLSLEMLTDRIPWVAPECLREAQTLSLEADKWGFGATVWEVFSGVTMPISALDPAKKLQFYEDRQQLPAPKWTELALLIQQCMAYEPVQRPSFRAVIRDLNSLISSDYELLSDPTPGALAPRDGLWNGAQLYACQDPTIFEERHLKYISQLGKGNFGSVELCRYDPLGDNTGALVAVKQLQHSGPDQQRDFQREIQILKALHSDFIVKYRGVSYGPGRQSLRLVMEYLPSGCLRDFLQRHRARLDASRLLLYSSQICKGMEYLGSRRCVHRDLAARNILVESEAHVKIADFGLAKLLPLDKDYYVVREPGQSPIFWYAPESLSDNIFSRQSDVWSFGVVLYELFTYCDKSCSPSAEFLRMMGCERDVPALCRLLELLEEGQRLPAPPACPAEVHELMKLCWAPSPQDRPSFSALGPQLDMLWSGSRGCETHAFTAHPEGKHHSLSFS

Broadly, the IC50 is the midpoint of a concentration-inhibition curve. In the case of `C=CC(=O)N1CC[C@@H](O)[C@@H](Nc2ncnc3[nH]ccc23)C1` (racemic) [Example 64, 1-[(3S,4R)-4-Hydroxy-3-(7H-pyrrolo[2,3-d]pyrimidin-4-ylamino)piperidin-1-yl]prop-2-en-1-one], the figures for the IC50 (on JAK3 enzyme (setting [2]); on JAK3 enzyme (setting [3]); in experiment [1]) were 5.3 nM, 996 nM and 4640 nM, respectively.
For the compound `C=CC(=O)N1CC[C@H](O)[C@@H](Nc2ncnc3[nH]ccc23)C1` (racemic) [Example 113, rac-1-[(3S,4S)-4-Hydroxy-3-(7H-pyrrolo[2,3-d]pyrimidin-4-ylamino)piperidin-1-yl]prop-2-en-1-one], the IC50 in experiment [1] is > 10000 nM.
For `C=CC(=O)N1CCC[C@@H](Nc2ncnc3[nH]cc(-c4cnn(C)c4)c23)C1` [Example 28, 1-[(3R)-3-{[5-(1-methyl-1H-pyrazol-4-yl)-7H-pyrrolo[2,3-d]pyrimidin-4-yl]amino}piperidin-1-yl]prop-2-en-1-one], the half-maximal inhibitory concentration (IC50) on JAK3 enzyme (setting [2]) was 48.2 nM; on JAK3 enzyme (setting [3]), 358 nM; in experiment [1] it was > 10000 nM.
Turning to `C=CC(=O)N1CC[C@@H]2CCN(c3ncnc4[nH]ccc34)[C@H]2C1` [Example 49, 1-[(3aS,7aR)-1-(7H-Pyrrolo[2,3-d]pyrimidin-4-yl)octahydro-6H-pyrrolo[2,3-c]pyridin-6-yl]prop-2-en-1-one], the IC50 in experiment [1] was 355 nM.
For `C=CC(=O)N1CC(Nc2ncnc3[nH]ccc23)CCC1CO` (stereo not shown) [Example 52, 1-[2-(Hydroxymethyl)-5-(7H-pyrrolo[2,3-d]pyrimidin-4-ylamino)piperidin-1-yl]prop-2-en-1-one], in experiment [1], the IC50 was > 354 nM.
Regarding `C=CC(=O)N1CCCC(C)(Nc2ncnc3[nH]ccc23)C1` (stereo not shown) [Example 71, 1-(3-((7H-Pyrrolo[2,3-d]pyrimidin-4-yl)amino)-3-methylpiperidin-1-yl)prop-2-en-1-one], the concentration for half-maximal inhibition (IC50) in experiment [1] (Homo sapiens, PBMC) was > 10000 nM.
The same measure, in the same setting: the same measure for `C=CC(=O)N1CCC[C@@](C)(Nc2ncnc3[nH]ccc23)C1` [Example 72, (R)-1-(3-((7H-pyrrolo[2,3-d]pyrimidin-4-yl)amino)-3-methylpiperidin-1-yl)prop-2-en-1-one]: > 10000 nM.
Regarding `C=CC(=O)N1CC[C@H]2CCN(c3ncnc4[nH]ccc34)[C@H]2C1` [Example 76, 1-[(3aR,7aR)-1-(7H-Pyrrolo[2,3-d]pyrimidin-4-yl)octahydro-6H-pyrrolo[2,3-c]pyridin-6-yl]prop-2-en-1-one], the half-inhibitory concentration (IC50) in experiment [1] is > 6080 nM.
As for `O=C(/C=C/C(F)(F)F)N1CC[C@@H]2CCN(c3ncnc4[nH]ccc34)[C@@H]2C1` [Example 81, (2E)-4,4,4-trifluoro-1-[(3aS,7aS)-1-(7H-pyrrolo[2,3-d]pyrimidin-4-yl)octahydro-6H-pyrrolo[2,3-c]pyridin-6-yl]but-2-en-1-one], the IC50 in experiment [1] (Homo sapiens, PBMC) was > 4000 nM.
The same measure, in the same setting: the same measure for `C=CC(=O)N1CC[C@@H]2OCCN(c3ncnc4[nH]ccc34)[C@@H]2C1` [Example 90, 1-[(4aR,8aS)-4-(7H-Pyrrolo[2,3-d]pyrimidin-4-yl)hexahydro-2H-pyrido[4,3-b][1,4]oxazin-6 (5H)-yl]prop-2-en-1-one]: > 10000 nM.
For the compound `C=C(CN(C)C)C(=O)N1CCC[C@@H](Nc2ncnc3[nH]ccc23)C1` [Example 92, 2-[(dimethylamino)methyl]-1-[(3R)-3-(7H-pyrrolo[2,3-d]pyrimidin-4-ylamino)piperidin-1-yl]prop-2-en-1-one], the IC50 in experiment [1] was > 10000 nM.
With `C=CC(=O)N1CC[C@@H]2OCCN(c3ncnc4[nH]ccc34)[C@H]2C1` [Example 119, 1-[(4aS,8aS)-4-(7H-Pyrrolo[2,3-d]pyrimidin-4-yl)hexahydro-2H-pyrido[4,3-b][1,4]oxazin-6 (5H)-yl]prop-2-en-1-one], the IC50 in experiment [1] was > 10000 nM.
Take `C=CC(=O)N1CCN(c2cnc3[nH]cc(C(=O)NC(C)C)c3n2)C(C)(C)C1` [Example 312, 2-(4-acryloyl-2,2-dimethylpiperazin-1-yl)-N-(propan-2-yl)-5H-pyrrolo[2,3-b]pyrazine-7-carboxamide]: the values for the IC50 at JAK3 enzyme (setting [2]) and on JAK3 enzyme (setting [3]) were 4.5 nM and 592 nM, respectively.
For `C=CC(=O)N1CCN(c2cnc3[nH]cc(C(=O)NC(C)C)c3n2)C2(CC2)C1` [Example 313, 2-(7-acryloyl-4,7-diazaspiro[2.5]oct-4-yl)-N-(propan-2-yl)-5H-pyrrolo[2,3-b]pyrazine-7-carboxamide] the same measures were 1.4 nM and 183 nM.
With `C=CC(=O)N1CCN(c2cnc3[nH]cc(C(=O)NC(C)C)c3n2)[C@@H](C2CC2)C1` [Example 314, 2-[(2S)-4-acryloyl-2-cyclopropylpiperazin-1-yl]-N-(propan-2-yl)-5H-pyrrolo[2,3-b]pyrazine-7-carboxamide], the IC50 turned out to be 5 nM at JAK3 enzyme (setting [2]) and 662 nM at JAK3 enzyme (setting [3]).
For the compound `C=CC(=O)N1CC[C@H](Nc2cnc3[nH]cc(C(=O)NC(C)C)c3n2)[C@H](OC)C1` [Example 317, 2-{[(3R,4S)-1-acryloyl-3-methoxypiperidin-4-yl]amino}-N-(propan-2-yl)-5H-pyrrolo[2,3-b]pyrazine-7-carboxamide], the results for the IC50 on JAK3 enzyme (setting [2]) and at JAK3 enzyme (setting [3]) were 0.5 nM and 44.6 nM, respectively.
For `C=CC(=O)N1CCC(C)(Nc2cnc3[nH]cc(C(=O)NC(C)C)c3n2)CC1` [Example 318, 2-[(1-acryloyl-4-methylpiperidin-4-yl)amino]-N-(propan-2-yl)-5H-pyrrolo[2,3-b]pyrazine-7-carboxamide] the same measures were 0.3 nM and 21.3 nM.
`C=CC(=O)N1CC[C@@H](Nc2cnc3[nH]cc(C(=O)NC(C)C)c3n2)[C@@H](F)C1` [Example 320, 2-{[(3S,4R)-1-acryloyl-3-fluoropiperidin-4-yl]amino}-N-(propan-2-yl)-5H-pyrrolo[2,3-b]pyrazine-7-carboxamide]: the IC50 at JAK3 enzyme (setting [2]) amounted to 0.4 nM; at JAK3 enzyme (setting [3]), 10.7 nM.
For `C=CC(=O)N1CCN(c2cnc3[nH]cc(C(=O)NC(C)C)c3n2)[C@H](CC)C1` [Example 321, 2-[(2R)-4-acryloyl-2-ethylpiperazin-1-yl]-N-(propan-2-yl)-5H-pyrrolo[2,3-b]pyrazine-7-carboxamide], in that order: 0.9 nM and 144 nM.
For `C=CC(=O)N1CC2(C1)CN(c1cnc3[nH]cc(C(=O)NC(C)C)c3n1)C2C` (stereo not shown) [Example 322, 2-(6-acryloyl-1-methyl-2,6-diazaspiro[3.3]hept-2-yl)-N-(propan-2-yl)-5H-pyrrolo[2,3-b]pyrazine-7-carboxamide], in that order: 29.4 nM and 3440 nM.
For `C=CC(=O)N1CCN(c2cnc3[nH]cc(C(=O)NC(C)C)c3n2)[C@@H](C(C)C)C1` [Example 323, 2-[(2S)-4-acryloyl-2-(propan-2-yl)piperazin-1-yl]-N-(propan-2-yl)-5H-pyrrolo[2,3-b]pyrazine-7-carboxamide] the same measures were 11.9 nM and 886 nM.
Take `C=CC(=O)N1CC2COCC(C1)N2c1cnc2[nH]cc(C(=O)NC(C)C)c2n1` [Example 324, 2-(7-acryloyl-3-oxa-7,9-diazabicyclo[3.3.1]non-9-yl)-N-(propan-2-yl)-5H-pyrrolo[2,3-b]pyrazine-7-carboxamide]: the results for the 50% inhibitory concentration (IC50) on JAK3 enzyme (setting [2]) and on JAK3 enzyme (setting [3]) were 37.5 nM and 3100 nM, respectively.
On to `C=CC(=O)N1CCN(c2cnc3[nH]cc(C(=O)NC(C)C)c3n2)[C@@H](CC)C1` [Example 325, 2-[(2S)-4-acryloyl-2-ethylpiperazin-1-yl]-N-(propan-2-yl)-5H-pyrrolo[2,3-b]pyrazine-7-carboxamide], for which the IC50 on JAK3 enzyme (setting [2]) came out at 5 nM; at JAK3 enzyme (setting [3]), 480 nM.
Take `C=CC(=O)N1C[C@@H](C)N(c2cnc3[nH]cc(C(=O)NC(C)C)c3n2)[C@@H](C)C1` [Example 328, 2-[(2R,6S)-4-acryloyl-2,6-dimethylpiperazin-1-yl]-N-(propan-2-yl)-5H-pyrrolo[2,3-b]pyrazine-7-carboxamide]: the IC50 at JAK3 enzyme (setting [2]) came out at 1.6 nM; on JAK3 enzyme (setting [3]), 222 nM.
For `C=CC(=O)N1CC(Nc2cnc3[nH]ccc3n2)C1` [Example 337, 1-(3-((5H-Pyrrolo[2,3-b]pyrazin-2-yl)amino)azetidin-1-yl)prop-2-en-1-one], in that order: 1.1 nM and 95.6 nM.
For `C=CC(=O)N1CCC(Oc2cnc3[nH]cc(C(=O)NC(C)C)c3n2)CC1` [Example 339, 2-((1-Acryloylpiperidin-4-yl)oxy)-N-isopropyl-5H-pyrrolo[2,3-b]pyrazine-7-carboxamide] the same measures were 0.2 nM and 17.5 nM.
For `C#CCNC(=O)c1c[nH]c2ncc(NC3CCN(C(=O)C=C)CC3)nc12` [Example 343, 2-((1-Acryloylpiperidin-4-yl)amino)-N-(prop-2-yn-1-yl)-5H-pyrrolo[2,3-b]pyrazine-7-carboxamide], in that order: 0.1 nM and 3.4 nM.

These data come from patent US20250134869A1, “Pyrrolo[2,3-d]pyrimidinyl, Pyrrolo[2,3-b]pyrazinyl and Pyrrolo[2,3-d]pyridinyl Acryla-mides” (Pfizer Inc, priority 2021, published 2025).
